Results taken from patent US6136815A, “Antiviral 2,4-pyrimidinedione derivatives and process for the preparation thereof” (Korea Research Inst. of Chem. Tech., priority 1996, dated 2000).
≈ marks a conversion by molar mass, not a printed value. Like-named read-outs stand apart in the source and are kept apart here.

Tests used:
[1] = test system: HIV-1; test: in vitro anti-HIV-1 assay: inhibition of the virus-induced cytopathic effect in MT-4 cells (MTT); assay type: cell-based; conditions: for S. I. (CD50 /ED50): Selectivity index = (CD50 /ED50)
Method: The in vitro anti-HIV-1 assays were based on the inhibition of the virus-induced cytopathic effect in MT-4 cells as described in J. Med. Chem, 34, 349 (1991).
First, MT-4 cells were suspended in a culture medium at a concentration of 1×10^4 cells/ml and infected with 500 TCID50 (50% cell culture infective dose)/well of HIV-1. Immediately after the virus infection, 100 μl of the cell suspension was brought into each well of a flat-bottomed microtiter tray containing various concentrations of the test compounds(1) to (21). After incubating for 4 or 5 days at 37° C., the number of viable cells was determined by the 3-(4,5-dimethylthiazol-2-yl)-2,5-diphenyltetrazolium bromide (MTT) method, as disclosed in J. Virol. Methods, 20, 309 (1988).

[2] = cytotoxicity: viability of mock-infected host (MT-4) cells (MTT); assay type: cell-based; conditions: human, Cytotoxic concentration that causes death of MT4 cells by 50%, MTT method, read-out: CD50 (the source's name)
Method: The cytotoxicity of the compounds of the present invention was assessed in parallel with their antiviral activity. It was based on the viability of mock-infected host cells as determined by the MTT methods (see J. Virol. Methods, 20, 309 (1988)). AZT was employed as a comparative compound.

[3] = Human immunodeficiency virus 1, MT4, read-out: ED50
[4] = Human immunodeficiency virus 1, MT4, Effective concentration for the inhibition of the proliferation of HIV by 50%, HIV-1-infected MT-4 cells, 4 or 5 days at 37° C., MTT method, read-out: ED50 (the source's name)

Row | SMILES | EC50 [1, 3] | CC50 [2] | EC50 [1, 4] | S. I. (CD50 /ED50) [1]
1 | Cc1cn([C@H]2C[C@H](N=[N+]=[N-])[C@@H](CO)O2)c(=O)[nH]c1=O [AZT, 3'-azido-3'-deoxythymidine, reference compound] | 0.00116 µg/mL (≈ 0.00434 µM) | 0.558 µg/mL (≈ 2.09 µM) |  | 
2 | CCOCn1c(Oc2cc(C)cc(C)c2)c(CC)c(=O)[nH]c1=O [Compound 1, 1-ethoxymethyl-5-ethyl-6-(3',5'-dimethylphenoxy)-2,4-pyrimidinedione] |  | 84.7 µg/mL (≈ 266 µM) | < 0.001 µg/mL | > 84,680
3 | CCOCn1c(Oc2cc(C)cc(C)c2)c(C(C)C)c(=O)[nH]c1=O [Compound 2, 1-ethoxymethyl-5-isopropyl-6-(3',5'-dimethylphenoxy)-2,4-pyrimidinedione] |  | 21.6 µg/mL (≈ 64.9 µM) | < 0.00256 µg/mL | > 8,425
4 | CCOCn1c(Oc2ccccc2)c(CC)c(=O)[nH]c1=O [Compound 3, 1-ethoxymethyl-5-ethyl-6-phenoxy-2,4-pyrimidinedione] |  | 16.6 µg/mL (≈ 57.3 µM) | < 0.001 µg/mL | > 16,630
5 | CCOCn1c(Oc2ccccc2)c(C(C)C)c(=O)[nH]c1=O [Compound 4, 1-ethoxymethyl-5-isopropyl-6-phenoxy-2,4-pyrimidinedione] | 0.018 µg/mL (≈ 0.0591 µM) | 92 µg/mL (≈ 302 µM) |  | > 5,111
6 | CCc1c(Oc2cc(C)cc(C)c2)n(COCc2ccccc2)c(=O)[nH]c1=O [Compound 5, 1-benzyloxymethyl-5-ethyl-6-(3',5'-dimethylphenoxy)-2,4-pyrimidinedione] |  | 29.7 µg/mL (≈ 78 µM) | < 0.00256 µg/mL | > 11,585
7 | Cc1cc(C)cc(Oc2c(C(C)C)c(=O)[nH]c(=O)n2COCc2ccccc2)c1 [Compound 6, 1-benzyloxymethyl-5-isopropyl-6-(3',5'-dimethylphenoxy)-2,4-pyrimidinedione] |  | 13.4 µg/mL (≈ 34 µM) | < 0.00256 µg/mL | > 5,246
8 | CC(C)c1c(Oc2ccccc2)n(COCc2ccccc2)c(=O)[nH]c1=O [Compound 7, 1-benzyloxymethyl-5-isopropyl-6-phenoxy-2,4-pyrimidinedione] |  | 10.2 µg/mL (≈ 27.9 µM) | < 0.001 µg/mL | > 10,210
9 | CCc1c(Oc2cc(C)cc(C)c2)n(COCCOC(C)=O)c(=O)[nH]c1=O [Compound 8, 1-(2'-acetoxyethoxymethyl)-5-ethyl-6-(3',5'-dimethylphenoxy)-2,4-pyrimidinedione] |  | 9.52 µg/mL (≈ 25.3 µM) | < 0.00256 µg/mL | > 3,718
10 | CCc1c(Oc2cc(C)cc(C)c2)n(COCCO)c(=O)[nH]c1=O [Compound 9] |  | 35.1 µg/mL (≈ 105 µM) | 0.992 µg/mL (≈ 2.97 µM) | 
11 | CC(=O)OCCOCn1c(Oc2cc(C)cc(C)c2)c(C(C)C)c(=O)[nH]c1=O [Compound 10, 1-(2'-acetoxyethoxymethyl)-5-isopropyl-6-(3',5'-dimethylphenoxy)-2,4-pyrimidinedione] |  | 119 µg/mL (≈ 304 µM) | 0.00351 µg/mL (≈ 0.00899 µM) | 
12 | Cc1cc(C)cc(Oc2c(C(C)C)c(=O)[nH]c(=O)n2COCCO)c1 [Compound 11, 1-(2'-hydroxyethoxymethyl)-5-isopropyl-6-(3',5'-dimethylphenoxy)-2,4-pyrimidinedione] |  | 129 µg/mL (≈ 370 µM) | 0.0107 µg/mL (≈ 0.0308 µM) | 
13 | COCCOCn1c(Oc2cc(C)cc(C)c2)c(C(C)C)c(=O)[nH]c1=O [Compound 12, 1-(2'-methoxyethoxymethyl)-5-isopropyl-6-(3',5'-dimethylphenoxy)-2,4-pyrimidinedione] |  | 126 µg/mL (≈ 348 µM) | 0.0106 µg/mL (≈ 0.0291 µM) | 
14 | CCOCn1c(C(=O)c2cc(C)cc(C)c2)c(CC)c(=O)[nH]c1=O [Compound 13, 1-ethoxymethyl-5-ethyl-6-(3',5'-dimethylbenzoyl)-2,4-pyrimidinedione] |  | 5.86 µg/mL (≈ 17.7 µM) | < 0.001 µg/mL | > 5,860
15 | CCOCn1c(C(=O)c2cc(C)cc(C)c2)c(C(C)C)c(=O)[nH]c1=O [Compound 14, 1-ethoxymethyl-5-isopropyl-6-(3',5'-dimethylbenzoyl)-2,4-pyrimidinedione] |  | 15.3 µg/mL (≈ 44.5 µM) | < 0.001 µg/mL | > 15,330
16 | CCOCn1c(C(=O)c2ccccc2)c(CC)c(=O)[nH]c1=O [Compound 15, 1-ethoxymethyl-5-ethyl-6-benzoyl-2,4-pyrimidinedione] |  | 103 µg/mL (≈ 342 µM) | 0.043 µg/mL (≈ 0.142 µM) | 
17 | CCOCn1c(C(=O)c2ccccc2)c(C(C)C)c(=O)[nH]c1=O [Compound 16, 1-ethoxymethyl-5-isopropyl-6-benzoyl-2,4-pyrimidinedione] |  | 88.7 µg/mL (≈ 280 µM) | 0.0116 µg/mL (≈ 0.0367 µM) | 
18 | CCc1c(C(=O)c2cc(C)cc(C)c2)n(COCc2ccccc2)c(=O)[nH]c1=O [Compound 17, 1-benzyloxymethyl-5-ethyl-6-(3',5'-dimethylbenzoyl)-2,4-pyrimidinedione] | < 0.001 µg/mL | 1.05 µg/mL (≈ 2.69 µM) |  | > 10,550
19 | Cc1cc(C)cc(C(=O)c2c(C(C)C)c(=O)[nH]c(=O)n2COCc2ccccc2)c1 [Compound 18, 1-benzyloxymethyl-5-isopropyl-6-(3',5 '-dimethylbenzoyl)-2,4-pyrimidinedione] |  | 11.9 µg/mL (≈ 29.3 µM) | < 0.001 µg/mL | > 11,920
20 | CC(C)c1c(C(=O)c2ccccc2)n(COCc2ccccc2)c(=O)[nH]c1=O [Compound 19, 1-benzyloxymethyl-5-isopropyl-6-benzoyl-2,4-pyrimidinedione] | < 0.01 µg/mL | 15.4 µg/mL (≈ 40.8 µM) |  | > 15,450
21 | Cc1cc(C)cc(C(=O)c2c(C(C)C)c(=O)[nH]c(=O)n2COCCO)c1 [Compound 20] |  | 51.7 µg/mL (≈ 143 µM) | 0.00367 µg/mL (≈ 0.0102 µM) | 
22 | COCCOCn1c(C(=O)c2cc(C)cc(C)c2)c(C(C)C)c(=O)[nH]c1=O [Compound 21, 1-(2'-methoxyethoxymethyl)-5-isopropyl-6-(3',5'-dimethylbenzoyl)-2,4-pyrimidinedione] |  | 121 µg/mL (≈ 324 µM) | 0.0119 µg/mL (≈ 0.0318 µM) | 
